Here are results for ten compounds from ChEMBL document CHEMBL3627599, “The antioxidant properties of salicylate derivatives: A possible new mechanism of anti-inflammatory activity” (Bioorg Med Chem Lett, 2015).

Series [1] in a line: Antioxidant activity assessed as DPPH free radical scavenging activity at 0.01 to 1 mM after 30 mins. In kind it is physicochemical. The conditions noted are these: 0.5 h, 1000 µM. For orientation: DPPH is a stable violet radical that fades when it is reduced.
Series [2] in a line: Antioxidant activity assessed as DPPH free radical scavenging activity at 1 mM after 30 mins. The conditions noted are these: 0.5 h, 1000 µM. In kind it is physicochemical.

Structures are written as SMILES.

For `Cc1ccc(O)c(C(=O)O)c1`, the result in series [1] was Active. Still for that read-out and setting: to `O=C(O)c1cc([N+](=O)[O-])ccc1O` belongs “Active”. With `NC(=O)c1cc(O)ccc1O`, the outcome in series [1] was Active. Take `CC(=O)Nc1ccc(O)c(C(N)=O)c1`: the result in series [2] was Active. As to `COc1ccc(O)c(C(=O)O)c1`, in series [1], the result was Active. The same measure, in the same setting: then `O=C(O)c1cc(Cl)ccc1O` [5-CHLOROSALICYLIC ACID], with “Active”.

As for `O=C(O)c1cc(O)ccc1O` [GENTISIC ACID], in series [1], the outcome was Active.

On to `Nc1ccc(O)c(C(=O)O)c1` [MESALAMINE], for which, in series [1], the result was Active. Take `COC(=O)c1cc(O)ccc1O` [METHYL 2,5-DIHYDROXYBENZOATE]: the result in series [1] was Active.

On to `O=C(O)c1ccccc1O` [SALICYLIC ACID], for which, in series [1], the outcome was Active.
